Experimental findings from patent publication US10206896B2, “Method of treating delayed healing of a wound associated with diabetes” (KUWAIT UNIVERSITY, priority 2014, dated 2019) are described below.

The subject of assay [1] is chronic oxidative stress fibroblasts (OS-CFs). As to the kind of experiment: Premature senescence in chronic oxidative stress fibroblasts. It is filed as cell-based, Wistar rat. As to the method:
(§1) Cell culture and HP treatment.
Oxidatively-stressed CFs (OS-CFs). A heightened state of oxidative stress and premature senescence in CFs were induced using hydrogen peroxide (HP) as a stressor. The HP treatment was conducted by seeding approximately 1×10^6 cells in a T75 tissue culture flask. Twenty-four hours later, the cells were exposed to a sublethal dose of HP (150 μM) for 2 hours, washed 2× with PBS and after 4 days of culturing in HP free medium; they were split in a 1:2 ratio, and then the aforementioned protocol was repeated again for cells receiving the second and third HP treatment. A third passage HP-treated CFs denoted in the current study as (OS-CFs) together with the corresponding CFs and DFs were used in most of the assays outlined below.

The test system of assay [2] is circular wound of a diabetic rat. As to the kind of experiment: Full-thickness excisional circular wound, rate of wound closure. It is filed as in vivo, GotoKakizaki (GK) rat. The note with it: composition of 30 μM 18α-GA and pluronic acid applied to the wound. Here is the method:
Wound model, drug treatment and macroscopic evaluation. All of the animal procedures were performed in accordance with the NIH Guidance for the Care and Use of Laboratory Animals. Female GotoKakizaki rats (GK) were used in the current study. Detailed information regarding this animal model for non-obese type 2 diabetes has been previously described. Weight and age-matched female Wistar rats (Kuwait University breeding colony) served as the corresponding controls. All of the animals were maintained under standard conditions with a 12 hour on/off light cycle, commercial diet, and water ad libitum. […]
The targeted depletion of caveolin-1 was achieved using the antisense vivo-morpholino oligomers (MOs) that were synthesized and designed by Gene Tools, LLC (Eugene, Oreg.). […] The specificity of the cav-1 morphant phenotype was determined using rat caveolin-1 cRNA that lacked the antisense MO binding site. […] The wound area was analyzed using Adobe Photoshop (version 7.0; Adobe Systems), and the percentage of wound closure was derived by the following formula: (1−[current wound size/initial wound size])×100. […]
Full-thickness excisional wounds were induced in the control and GK (a non-obese genetic model of type 2 diabetes), and key parameters related to cellular senescence, caveolin-1 signaling and oxidative stress were measured 10 days post-injury. […]

The subject of assay [3] is diabetic fibroblasts (DFs).
Experimental: Cell culture and HP treatment. Primary dermal fibroblasts cell lines were established from the dorsal skin of female GotoKakizaki (GK; age 12-15 months) rat, a model for non-obese type 2 diabetes (DFs) and their Wistar control counterparts (CFs). Briefly, the dermis was cut into small pieces and incubated in Dulbecco's modified Eagle medium (DMEM; Invitrogen) containing collagenase (250 U/ml; Sigma) for 30 minutes at 37° C. in 5% CO2 with constant agitation. The sections were triturated vigorously to release fibroblasts, and these cells were collected by centrifugation. […]
Senescence-associated β-galactosidase staining and quantification assays. The senescence-associated β-galactosidase (SA-β-gal) activity was determined using a senescence β-gal staining kit (Cell Signaling Technology). […] For a prices quantification of β-gal activity, the rate of conversion of 4-methylumbelliferyl-3-D-galactopyranoside to the fluorescence hydrolyzed product 4-methylumbellifrone at pH 6 was assessed using previously published procedure (Gary and kindell 2005).
CFs were transfected with caveolin-1-pCMV(pCMV-Cav-1) or its vector control (pCMV-GRP), whereas DFs were rendered caveolin-1 deficient (Cav-1 siRNA) using siRNA-based technique. […] Most of the assays were performed in triplicate, and the data was expressed as the means±SEM of at least three independent experiments […]
Assay [4] relates to diabetic fibroblasts (DFs). As to the kind of experiment: BrdU incorporation into DNA (cell proliferation) in diabetic fibroblasts. It is filed as cell-based, GotoKakizaki (GK) rat. The note with it: treated DFs compared with DFs. As to the method: as §1
Assessment of key fibroblast functions essential for wound healing. To assess cell proliferation, fibroblasts were seeded into a 96-well plate at a density of 1×10^4 per well and were allowed to adhere overnight in DMEM medium supplemented with 10% FCS. After arrest by incubation in serum-free medium for 24 hours, the cells were exposed to growth factors, and the incorporation of bromodeoxyuridine (BrdU) into DNA was determined using the manufacturer's protocol (Roche Diagnostics). Similarly, for the in vitro wound (migration) experiments, cultured fibroblasts were grown in six-well plates until they reached confluence. The medium was removed, the cells were washed with PBS 3× before culturing was continued in serum-free DMEM containing 0.5% BSA for an additional 24 hours. Thereafter, the monolayer was artificially wounded by using a pipette tip to scratch across the plate; the cells were washed with PBS to remove the detached cells and then cultured in serum-free medium in the presence of mitomyocin C (10 μg/ml) to prevent cell proliferation. The rate of wound healing was quantified as described in the literature
In general terms: Uptake of a labelled nucleoside into DNA is a usual measure of proliferation.

Assay [5] relates to control fibroblasts (CFs). The experiment in a line: BrdU incorporation into DNA (cell proliferation) in control fibroblasts. The following applies: 24-hr serum starved CFs, vs starved cells; dose providing the maximum response (IGF 50 ng, PDGF 1 nM, EGF 100 ng). It is filed as cell-based, Wistar rat. As to the method: Cell culture and HP treatment. […] Assessment of key fibroblast functions essential for wound healing. To assess cell proliferation, fibroblasts were seeded into a 96-well plate at a density of 1×10^4 per well and were allowed to adhere overnight in DMEM medium supplemented with 10% FCS. After arrest by incubation in serum-free medium for 24 hours, the cells were exposed to growth factors, and the incorporation of bromodeoxyuridine (BrdU) into DNA was determined using the manufacturer's protocol (Roche Diagnostics). Similarly, for the in vitro wound (migration) experiments, cultured fibroblasts were grown in six-well plates until they reached confluence. The medium was removed, the cells were washed with PBS 3× before culturing was continued in serum-free DMEM containing 0.5% BSA for an additional 24 hours. […] The rate of wound healing was quantified as described in the literature […] Caveolin-1 protein expression and PDGF-induced phosphorylation of Akt (20 min) and ERK (10 min) in 24-hr serum starved fibroblasts were determined using a Western-blotting-based technique. A proliferation index encompassing BrdU incorporation into DNA and cell cycle progression was evaluated in response to various growth factors (e.g., IGF, 50 ng; PDGF, 1 nM; EGF, 100 ng) in 24-hr serum starved fibroblast. […]

Assay [6] has as its system control fibroblasts (CFs). The experiment in a line: In vitro scratch wound (cell migration) in control fibroblasts. The following applies: 24 hrs post-injury. It is filed as cell-based, Wistar rat. As to the method:
Cell culture and HP treatment. […] Assessment of key fibroblast functions essential for wound healing. To assess cell proliferation, fibroblasts were seeded into a 96-well plate at a density of 1×10^4 per well and were allowed to adhere overnight in DMEM medium supplemented with 10% FCS. After arrest by incubation in serum-free medium for 24 hours, the cells were exposed to growth factors, and the incorporation of bromodeoxyuridine (BrdU) into DNA was determined using the manufacturer's protocol (Roche Diagnostics). Similarly, for the in vitro wound (migration) experiments, cultured fibroblasts were grown in six-well plates until they reached confluence. The medium was removed, the cells were washed with PBS 3× before culturing was continued in serum-free DMEM containing 0.5% BSA for an additional 24 hours. Thereafter, the monolayer was artificially wounded by using a pipette tip to scratch across the plate; the cells were washed with PBS to remove the detached cells and then cultured in serum-free medium in the presence of mitomyocin C (10 μg/ml) to prevent cell proliferation. The rate of wound healing was quantified as described in the literature […] Caveolin-1 protein expression and PDGF-induced phosphorylation of Akt (20 min) and ERK (10 min) in 24-hr serum starved fibroblasts were determined using a Western-blotting-based technique. A proliferation index encompassing BrdU incorporation into DNA and cell cycle progression was evaluated in response to various growth factors (e.g., IGF, 50 ng; PDGF, 1 nM; EGF, 100 ng) in 24-hr serum starved fibroblast. An in vitro wound-healing model conducted by scratching starved confluent cultured fibroblasts with a pipette tip was used to monitor the impact of PDGF on cell migration. […] In serum-induced proliferating cells in CFs, the optical density at 450 nm (OD450) was more than 10-fold higher than that observed for starved cells.

In the case of `CC1(C)[C@@H](O)CC[C@]2(C)[C@H]3C(=O)C=C4[C@H]5C[C@@](C)(C(=O)O)CC[C@]5(C)CC[C@@]4(C)[C@]3(C)CC[C@@H]12` [18α-GA, 18α-Glycyrrhetinic acid], the premature senescence result in assay [1] and in assay [3] (DFs) was “can be reversed” throughout. Further, the “impaired wound healing (rate of wound closure)” value in assay [2] is “ameliorate impaired wound healing”. Besides, the “level/activity of SA-β-gal” value in assay [3] (treated DFs compared with DFs) is on record as “significantly lower level”. In assay [4], the “rate of proliferation (BrdU incorporation into DNA)” value is reported as “increased rate of proliferation”.
Regarding IGF: mitotic growth factor, the “increase of proliferation rate (BrdU incorporation)” value in assay [5] is listed as about 6.7 fold. Also, the “number of cells that migrated into the cell-free wound zone” value in assay [6] was “markedly increased”.
PDGF: in assay [5], the “increase of proliferation rate (BrdU incorporation)” value is listed as “approximately 10 fold”. In addition, in assay [6], the “number of cells that migrated into the cell-free wound zone” value is on record as “markedly increased” and the “relative potency on cell migration among growth factors” value is listed as “most potent among them”.
